We go through 16 compounds from ChEMBL document CHEMBL5046293 (J Med Chem, 2022).

A short description of data set [1]: Stability of compound in 0.01 M PBS buffer at 50 uM measured after 52 hrs by LC-MS analysis (reference value: 99.2 %). It counts as physicochemical. Conditions: read-out: Stability.
Data set [2] is described as follows: Cytotoxicity against human BLEC monolayers at 50 uM incubated for 1 hr. It counts as toxicity, cell-based. The following applies: brain-like endothelial cells.
Data set [3] can be described thus: Stability of compound in 0.01 M PBS buffer at 50 uM measured after 4 hrs by LC-MS analysis (reference value: 99.2 %). The following applies: read-out: Stability. It counts as physicochemical.
The nature of data set [4]: Stability of compound in 0.01 M PBS buffer at 50 uM measured after 52 hrs by LC-MS analysis (reference value: 98.7 %). The class given is physicochemical. The following applies: read-out: Stability.
Data set [5] in a line: Stability of compound in 0.01 M PBS buffer at 50 uM measured after 4 hrs by LC-MS analysis (reference value: 98.7 %). The class given is physicochemical. Conditions: read-out: Stability.

As for `OC[C@H]1O[C@@H](OCCCCc2cn(CCCc3ccc(O)c(/C=N/O)n3)nn2)[C@H](O)[C@@H](O)[C@@H]1O`, the remaining at 52 h, 50 µM in data set [1] is 90.9%. Further, in data set [2], the Activity result is given as “Non-Toxic”. In data set [3], the remaining at 4 h, 50 µM worked out at 96.7%.
Take `C#CCCCCO[C@@H]1O[C@H](CO)[C@@H](O)[C@H](O)[C@H]1O`: the Activity result in data set [2] was “Non-Toxic”.
As for `OC[C@H]1O[C@@H](OCCCCCc2ccc(O)c(/C=N/O)n2)[C@H](O)[C@@H]1O`, in data set [2], the Activity entry is on record as “Non-Toxic”.
As for `C#CCCCCO[C@@H]1O[C@H](CO)[C@@H](O)[C@H]1O`, the Activity entry in data set [2] is “Non-Toxic”.
Still for that read-out and setting: as for `OC[C@H]1O[C@H](OCCCCc2cn(CCCCc3ccc(O)c(/C=N/O)n3)nn2)[C@H](O)[C@@H](O)[C@@H]1O`, the entry is “Non-Toxic”; as for `OC[C@H]1O[C@@H](OCCCCc2cn(CCCCc3ccc(O)c(/C=N/O)n3)nn2)[C@H](O)[C@@H]1O`, “Non-Toxic”; as for `OC[C@H]1O[C@@H](OCCCCc2ccc(O)c(/C=N/O)n2)[C@H](O)[C@@H](O)[C@@H]1O`, “Non-Toxic”.
Regarding `Cn1cc(CCCCO[C@H]2O[C@H](CO)[C@@H](O)[C@H](O)[C@H]2O)nn1`, the Activity entry in data set [2] is given as “Non-Toxic”.
Take `OC[C@H]1O[C@@H](OCCCc2ccc(O)c(/C=N/O)n2)[C@H](O)[C@@H](O)[C@@H]1O`: the remaining at 52 h, 50 µM in data set [4] came to 91.4%. Also, the Activity entry in data set [2] is recorded as “Non-Toxic”. The remaining at 4 h, 50 µM in data set [5] worked out at 97.8%.
As for `Cn1cc(CCCCOC[C@H]2O[C@@H](O)[C@H](O)[C@@H](O)[C@@H]2O)nn1`, the Activity result in data set [2] is recorded as “Non-Toxic”.
Consider `Cn1cc(CCCCO[C@@H]2O[C@H](CO)[C@@H](O)[C@H](O)[C@H]2O)nn1`, for which the Activity result in data set [2] is given as “Non-Toxic”.
On to `C#CCCO[C@@H]1O[C@H](CO)[C@@H](O)[C@H](O)[C@H]1O`, for which the Activity result in data set [2] is listed as “Non-Toxic”.
Still for that read-out and setting: as for `OC[C@H]1O[C@@H](OCCCCc2cn(CCCCc3ccc(O)c(/C=N/O)n3)nn2)[C@H](O)[C@@H](O)[C@@H]1O`, the entry is “Non-Toxic”; as for `Cn1cc(CCCCO[C@@H]2O[C@H](CO)[C@@H](O)[C@H]2O)nn1`, “Non-Toxic”.
As for `Cn1cc(CCO[C@@H]2O[C@H](CO)[C@@H](O)[C@H](O)[C@H]2O)nn1`, the Activity result in data set [2] was “Non-Toxic”.
Still for that read-out and setting: as for `C#CCCCCO[C@H]1O[C@H](CO)[C@@H](O)[C@H]1O`, the entry is “Non-Toxic”.
